The results in this text go back to patent US20240059710A1, “KRAS G12D Inhibitors” (Jacobio Pharmaceuticals Co., Ltd., priority 2020, published 2024).

In experiment [1] the target is T1, GDP-loaded HIS-KRAS (G12D, aa 1-169) (Homo sapiens, UniProt P01116, G12D).
T1 construct: GDP-loaded HIS-KRAS (G12D, aa 1-169)
As to the kind of experiment: SOS1 catalyzed nucleotide exchange assay. In kind it is biochemical. Particulars: SOS1 ExD, TR-FRET, 4 hours at 25° C. Summed up: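 Compound was preincubated 15 min with 1.5 nM GDP-loaded KRAS G12D (final 5 nM GDP). SOS1 ExD (aa 564-1049, 0.5 µM), 80 nM BODIPY FL GTP and anti-His Tb antibody were then added for 4 h at 25 °C. The TR-FRET 515/486 ratio was normalized between DMSO and no-KRAS wells, and IC50 came from 4-parameter fits.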

The subject of experiment [2] is AGS cells expressing KRAS G12D. As to the kind of experiment: Phospho-ERK1/2(THR202/TYR204) HTRF assay. Type of experiment: cell-based. Particulars: 2 hours incubation, read-out: AGS p-ERK IC50. Summed up: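 Cells seeded 40,000/well, incubated overnight, then treated with compound in F12K with 0.1% FBS for 2 h at 37 °C. Lysates assayed for phospho-ERK1/2 by HTRF after 4 h at 25 °C; IC50 from 4-parameter logistic fit.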

Experiment [3] has as its system AsPC-1. As to the kind of experiment: Cell growth inhibition assay (AsPC-1). In kind it is cell-based. Particulars: AsPC-1, 6 days incubation, CellTiter-Glo. Summed up: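 AsPC-1 cells seeded at 1000 cells/well in RPMI-1640 with 10% FBS, attached overnight, then exposed to compound dilutions for 6 days at 37 °C/5% CO2. Viability read by CellTiter-Glo luminescence; IC50 from a 4-parameter logistic fit.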
In general terms: In ATP-based viability assays light output follows the ATP content of the culture.

Experiment [4] relates to AGS. The experiment in a line: Cell growth inhibition assay (AGS). Type of experiment: cell-based. Particulars: 6 days incubation, CellTiter-Glo. A digest of the protocol:
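AGS cells in F12K/10% FBS plated at 500 cells/well, attached overnight, then exposed to compounds for 6 days at 37° C./5% CO2. Viability by CellTiter-Glo luminescence; IC50 from 4-parameter logistic fit.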

In experiment [5] the target is T2, GppNp-loaded HIS-KRAS (G12D, aa 1-169) / cRAF RBD (Homo sapiens, UniProt P01116, G12D).
T2 construct: GppNp-loaded HIS-KRAS (G12D, aa 1-169)
T2 sequence (P01116 1-169 isoform P01116-2 G12D): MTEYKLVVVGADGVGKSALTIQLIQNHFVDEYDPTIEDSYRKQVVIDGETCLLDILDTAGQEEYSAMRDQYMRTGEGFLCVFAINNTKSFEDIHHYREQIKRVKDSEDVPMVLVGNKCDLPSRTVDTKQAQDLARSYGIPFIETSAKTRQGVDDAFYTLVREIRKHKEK
As to the kind of experiment: GTP-KRAS and cRAF interaction assay. Particulars: HTRF, 2 hours at 25° C. In kind it is binding. A digest of the protocol: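 GppNp-loaded KRAS G12D (2.0 nM) preincubated 15 min with compound, then cRAF RBD (35 nM) and HTRF antibodies added for 2 h at 25° C with 100 μM GTP final. Ratios normalized to DMSO and no-KRAS controls; IC50 by 4-parameter fit.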
(In TR-FRET formats the signal depends on donor and acceptor labels being close together.)

Where two headings read alike, the source gives them in different places.

T1 sequence (P01116 1-169 isoform P01116-2 G12D): as above

`C#Cc1cccc2cc(O)cc(-c3c(C(F)(F)F)cc4c(N5CC6CCC(C5)N6)nc(OCC5(CN6CCOCC6)CC5)nc4c3F)c12` (single isomer, unassigned) [Compound 98A]: the half-maximal inhibitory concentration (IC50) in experiment [1] stood at 219 nM; in experiment [2], 1830 nM; in experiment [3] it was 1440 nM; in experiment [4], 319 nM; in experiment [5], 4260 nM.
`CCc1cccc2cc(O)cc(-c3ccc4c(N5CC6CCC(C5)N6)nc(OC[C@@]56CCCN5C[C@H](F)C6)nc4c3F)c12` [Compound 91]: the concentration for half-maximal inhibition (IC50) in experiment [1] came out at 4.82 nM; in experiment [2] (Homo sapiens) it was 8.54 nM; in experiment [3] (Homo sapiens, ASPC1, 144 h) it was 31.6 nM; in experiment [4] (Homo sapiens, 144 h), 12.3 nM; in experiment [5] it was 102 nM.
As to `C#Cc1cccc2cc(O)cc(-c3ccc4c(N5CC6CCC(C5)N6)nc(OCC5(CN6CC[C@@H](F)C6)CC5)nc4c3F)c12` [Compound 114], the IC50 in experiment [1] amounted to 12.3 nM; in experiment [2] (Homo sapiens), 9.02 nM; in experiment [3] (Homo sapiens, ASPC1, 144 h), 18.7 nM; in experiment [4] (Homo sapiens, 144 h) it was 4.47 nM; in experiment [5], 120 nM.
`C#Cc1cccc2cc(O)cc(-c3cc4nc(OCC5(CN6CCOCC6)CC5)nc(N5CC6CCC(C5)N6)c4cc3C)c12` [Compound 118]: the IC50 amounted to 19.2 nM in experiment [1]; 64 nM in experiment [2] (Homo sapiens); 145 nM in experiment [3] (Homo sapiens, ASPC1, 144 h); 31.1 nM in experiment [4] (Homo sapiens, 144 h); 165 nM in experiment [5].
The like results for `N#Cc1c(N)sc2c(F)ccc(-c3ccc4c(N5CC6CCC(C5)N6)nc(OCC5(CN6CCOCC6)CC5)nc4c3F)c12` [Compound 95] were, in that order, 3.28 nM, greater than 200 nM, 572 nM, 52.7 nM and 388 nM.
The like results for `C#Cc1cccc2cc(O)cc(-c3cc4nc(OCC5(CN6CCOCC6)CC5)nc(N5CC6CCC(C5)N6)c4cc3Cl)c12` [Compound 57] were, in that order, 45.8 nM, 95.8 nM, 399 nM, 124 nM and 350 nM.
Take `C#Cc1cccc2cc(O)cc(-c3c(Cl)cc4c(N5CC6CCC(C5)N6)nc(OCC5(CN6CCOCC6)CC5)nc4c3Cl)c12` [Compound 107]: the IC50 in experiment [1] was 4.11 nM; in experiment [2] (Homo sapiens) it was 140 nM; in experiment [3] (Homo sapiens, ASPC1, 144 h), 282 nM; in experiment [4] (Homo sapiens, 144 h), 107 nM; in experiment [5] it was 524 nM.
`C#Cc1cccc2cc(O)cc(-c3c(C#N)cc4c(N5CC6CCC(C5)N6)nc(OCC5(CN6CCOCC6)CC5)nc4c3F)c12` (single isomer, unassigned) [Compound 60B]: the IC50 in experiment [1] came to 12.5 nM; in experiment [2] it was 6.96 nM; in experiment [3] it was 207 nM; in experiment [4] it was 13.1 nM; in experiment [5], 62.9 nM.
Regarding `C#Cc1cccc2cc(O)cc(-c3ccc4c(N5CC6CCC(C5)N6)nc(OC[C@@]56CCCN5C[C@H](F)C6)nc4c3F)c12` [Compound 73], the IC50 is 3.02 nM in experiment [1]; 0.757 nM in experiment [2] (Homo sapiens); 42 nM in experiment [3] (Homo sapiens, ASPC1, 144 h); 7 nM in experiment [4] (Homo sapiens, 144 h); 37 nM in experiment [5].
Taken in the same sequence, the figures for `C#Cc1cccc2cc(O)cc(-c3ccc4c(N5CC6CCC(C5)N6)nc(OCC5(CN6CCOCC6)CC5)nc4c3F)c12` [Compound 34] were 8.73 nM, 2.16 nM, 19.1 nM, 11.1 nM and 12.6 nM.
Taken in the same sequence, the figures for `C#Cc1c(F)ccc2cc(O)cc(-c3c(Cl)cc4c(C5CC6CCC(C5)N6)nc(OC[C@@]56CCCN5C[C@H](F)C6)nc4c3F)c12` (stereo partly drawn) [Compound 100] were 5.93 nM, 1.71 nM, 33 nM, 5.68 nM and 55 nM.
As to `Cc1ccc2cc(O)cc(-c3ccc4c(N5CC6CCC(C5)N6)nc(OCC5(CN6CCOCC6)CC5)nc4c3F)c2c1` [Compound 64], the half-inhibitory concentration (IC50) in experiment [1] was 45.4 nM; in experiment [2] it was 61.8 nM; in experiment [3], 178 nM; in experiment [4] it was 73 nM; in experiment [5], 329 nM.

Usually IC50 stands for the concentration that inhibits the measured activity by half.
